From PubChem BioAssay (NCI)
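Briefly, cells in 96-well plates were exposed to five compound concentrations for 48 h, and endpoints were estimated by linear interpolation. GI50: concentration for 50% inhibition of growth. TGI marks complete inhibition of growth.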

Legend:
Test in all cases: inhibition of tumour cell growth, NCI panel, 48 h
UACC-257 melanoma = test system: UACC-257 melanoma
TK-10 renal = test system: TK-10 renal
HL-60(TB) leukemia = test system: HL-60(TB) leukemia
OVCAR-3 ovarian = test system: OVCAR-3 ovarian
K-562 leukemia = test system: K-562 leukemia
LOX IMVI melanoma = test system: LOX IMVI melanoma
A549 NSCLC = test system: A549 NSCLC
HCT-116 colon = test system: HCT-116 colon
MOLT-4 leukemia = test system: MOLT-4 leukemia
OVCAR-4 ovarian = test system: OVCAR-4 ovarian
MALME-3M melanoma = test system: MALME-3M melanoma
UACC-62 melanoma = test system: UACC-62 melanoma
RPMI-8226 leukemia = test system: RPMI-8226 leukemia
HCT-15 colon = test system: HCT-15 colon
SN12C renal = test system: SN12C renal
CCRF-CEM leukemia = test system: CCRF-CEM leukemia
U251 CNS = test system: U251 CNS
SF-268 CNS = test system: SF-268 CNS
MDA-MB-435 = test system: MDA-MB-435
HOP-92 NSCLC = test system: HOP-92 NSCLC
SF-295 CNS = test system: SF-295 CNS
NCI-H460 lung = test system: NCI-H460 lung
MDA-MB-231 breast = test system: MDA-MB-231 breast
SW-620 colon = test system: SW-620 colon
DU-145 prostate = test system: DU-145 prostate
COLO 205 colon = test system: COLO 205 colon
SK-MEL-2 melanoma = test system: SK-MEL-2 melanoma
KM12 colon = test system: KM12 colon
NCI-H522 lung = test system: NCI-H522 lung
PC-3 prostate = test system: PC-3 prostate
UO-31 renal = test system: UO-31 renal
786-0 renal = test system: 786-0 renal
SK-MEL-28 melanoma = test system: SK-MEL-28 melanoma
NCI-H23 lung = test system: NCI-H23 lung
RXF 393 renal = test system: RXF 393 renal
SR leukemia = test system: SR leukemia
ACHN renal = test system: ACHN renal
SNB-19 CNS = test system: SNB-19 CNS
SF-539 CNS = test system: SF-539 CNS
HS 578T breast = test system: HS 578T breast
M14 melanoma = test system: M14 melanoma
NCI/ADR-RES ovarian = test system: NCI/ADR-RES ovarian
OVCAR-8 ovarian = test system: OVCAR-8 ovarian
EKVX NSCLC = test system: EKVX NSCLC
NCI-H226 lung = test system: NCI-H226 lung
BT-549 breast = test system: BT-549 breast
OVCAR-5 ovarian = test system: OVCAR-5 ovarian
SK-MEL-5 melanoma = test system: SK-MEL-5 melanoma
A498 renal = test system: A498 renal
HT29 colon = test system: HT29 colon
T-47D breast = test system: T-47D breast
MCF7 breast = test system: MCF7 breast
SK-OV-3 ovarian = test system: SK-OV-3 ovarian
SNB-75 CNS = test system: SNB-75 CNS
HCC-2998 colon = test system: HCC-2998 colon
IGROV1 ovarian = test system: IGROV1 ovarian

CCCCCCC/C=C/[C@H]1O[C@]23C(=O)C[C@@]4(C[C@@H](OC5OC(CO)C(O)C(O)C5O)C[C@@H]4[C@H]2C=C1C)OC3=O (some centres not stated)
GI50 (UACC-257 melanoma): 5.21 µM
TGI (UACC-257 melanoma): 12.4 µM
GI50 (TK-10 renal): 6.14 µM
TGI (TK-10 renal): 12.6 µM
GI50 (HL-60(TB) leukemia): 1.2 µM
TGI (HL-60(TB) leukemia): 7.53 µM
GI50 (OVCAR-3 ovarian): 2.28 µM
TGI (OVCAR-3 ovarian): 6.71 µM
GI50 (K-562 leukemia): 2.2 µM
TGI (K-562 leukemia): 18.5 µM
GI50 (LOX IMVI melanoma): 2.4 µM
TGI (LOX IMVI melanoma): 6.84 µM
GI50 (A549 NSCLC): 8.48 µM
TGI (A549 NSCLC): > 33.3 µM
GI50 (HCT-116 colon): 1.68 µM
TGI (HCT-116 colon): 6.03 µM
GI50 (MOLT-4 leukemia): 1.31 µM
TGI (MOLT-4 leukemia): 14.4 µM
GI50 (OVCAR-4 ovarian): 3.37 µM
TGI (OVCAR-4 ovarian): 8.07 µM
GI50 (MALME-3M melanoma): 4.82 µM
TGI (MALME-3M melanoma): 9.87 µM
GI50 (UACC-62 melanoma): 4.47 µM
TGI (UACC-62 melanoma): 10.9 µM
GI50 (RPMI-8226 leukemia): 1.28 µM
TGI (RPMI-8226 leukemia): > 33.3 µM
GI50 (HCT-15 colon): 2.53 µM
TGI (HCT-15 colon): 9.43 µM
GI50 (SN12C renal): 5.46 µM
TGI (SN12C renal): 14.9 µM
GI50 (CCRF-CEM leukemia): 1.19 µM
TGI (CCRF-CEM leukemia): > 33.3 µM
GI50 (U251 CNS): 3.55 µM
TGI (U251 CNS): 7.63 µM
GI50 (SF-268 CNS): 5.12 µM
TGI (SF-268 CNS): 11.1 µM
GI50 (MDA-MB-435): 2.02 µM
TGI (MDA-MB-435): 7.68 µM
GI50 (HOP-92 NSCLC): 3.77 µM
TGI (HOP-92 NSCLC): 11.6 µM
GI50 (SF-295 CNS): 5.12 µM
TGI (SF-295 CNS): 12.7 µM
GI50 (NCI-H460 lung): 6.63 µM
TGI (NCI-H460 lung): 16.8 µM
GI50 (MDA-MB-231 breast): 6.47 µM
TGI (MDA-MB-231 breast): 16.5 µM
GI50 (SW-620 colon): 3.56 µM
TGI (SW-620 colon): 11.7 µM
GI50 (DU-145 prostate): 4.59 µM
TGI (DU-145 prostate): 9.87 µM
GI50 (COLO 205 colon): 7.1 µM
TGI (COLO 205 colon): 17.8 µM
GI50 (SK-MEL-2 melanoma): 5.33 µM
TGI (SK-MEL-2 melanoma): 15.1 µM
GI50 (KM12 colon): 4.66 µM
TGI (KM12 colon): 11.6 µM
GI50 (NCI-H522 lung): 1.7 µM
TGI (NCI-H522 lung): 8.64 µM
GI50 (PC-3 prostate): 3.81 µM
TGI (PC-3 prostate): 12.9 µM
GI50 (UO-31 renal): 3.61 µM
TGI (UO-31 renal): 7.57 µM
GI50 (786-0 renal): 4.9 µM
TGI (786-0 renal): 10.1 µM
GI50 (SK-MEL-28 melanoma): 5.05 µM
TGI (SK-MEL-28 melanoma): 10.3 µM
GI50 (NCI-H23 lung): 5.75 µM
TGI (NCI-H23 lung): 15.8 µM
GI50 (RXF 393 renal): 4.41 µM
TGI (RXF 393 renal): 9.15 µM
GI50 (SR leukemia): 1.35 µM
TGI (SR leukemia): 13.6 µM
GI50 (ACHN renal): 4.31 µM
TGI (ACHN renal): 8.65 µM
GI50 (SNB-19 CNS): 5.25 µM
TGI (SNB-19 CNS): 10.2 µM
GI50 (SF-539 CNS): 5.1 µM
TGI (SF-539 CNS): 9.99 µM
GI50 (HS 578T breast): 9.04 µM
TGI (HS 578T breast): > 33.3 µM
GI50 (M14 melanoma): 3.58 µM
TGI (M14 melanoma): 8.43 µM
GI50 (NCI/ADR-RES ovarian): 6.99 µM
TGI (NCI/ADR-RES ovarian): > 33.3 µM
GI50 (OVCAR-8 ovarian): 6.08 µM
TGI (OVCAR-8 ovarian): > 33.3 µM
GI50 (EKVX NSCLC): 6.72 µM
TGI (EKVX NSCLC): 17.8 µM
GI50 (NCI-H226 lung): 5.85 µM
TGI (NCI-H226 lung): 13.4 µM
GI50 (BT-549 breast): 2.06 µM
TGI (BT-549 breast): 12.9 µM
GI50 (OVCAR-5 ovarian): 6.06 µM
TGI (OVCAR-5 ovarian): 14.7 µM
GI50 (SK-MEL-5 melanoma): 4.88 µM
TGI (SK-MEL-5 melanoma): 9.37 µM
GI50 (A498 renal): 4.78 µM
TGI (A498 renal): 9.43 µM
GI50 (HT29 colon): 4.18 µM
TGI (HT29 colon): 11.9 µM
GI50 (T-47D breast): 0.911 µM
TGI (T-47D breast): 9.69 µM
GI50 (MCF7 breast): 1.36 µM
TGI (MCF7 breast): 26.9 µM
GI50 (SK-OV-3 ovarian): 7.13 µM
TGI (SK-OV-3 ovarian): 21.6 µM
GI50 (SNB-75 CNS): 2.84 µM
TGI (SNB-75 CNS): 7.17 µM
GI50 (HCC-2998 colon): 4.44 µM
TGI (HCC-2998 colon): 9.39 µM
GI50 (IGROV1 ovarian): 5.67 µM
TGI (IGROV1 ovarian): 26.7 µM
